In US20080026996A1, “Selective Vpac2 Receptor Reptide Agonists” (ELI LILLY AND COMPANY, priority 2004, published 2008):
Where a SMILES comes first, the peptide text is derived from it. Where no end group is shown, it is not given here. [ ]: non-standard residue; d: D form. The star is where a group is joined. hArg = N=C(N)NCCCC[C@H](N)C(=O)O; Cit = NC(=O)NCCC[C@H](N)C(=O)O; Orn = NCCC[C@H](N)C(=O)O; Hexanoyl = CCCCCC(=O)*; Aib = CC(C)(N)C(=O)O; Mpa = O=C(O)CCS

Legend:
human VPAC2 [1] = molecular target: T1, human VPAC2 (Homo sapiens, UniProt P41587); test: Alpha screen cAMP in vitro potency, human VPAC2 receptor; format: cell-based; conditions: cAMP generation; single result from two analyses performed in a single run; read-out: Human VPAC2 Receptor: Alpha Screen EC50
T1 construct: expressed in transfected cells
T1 sequence (P41587 24-438): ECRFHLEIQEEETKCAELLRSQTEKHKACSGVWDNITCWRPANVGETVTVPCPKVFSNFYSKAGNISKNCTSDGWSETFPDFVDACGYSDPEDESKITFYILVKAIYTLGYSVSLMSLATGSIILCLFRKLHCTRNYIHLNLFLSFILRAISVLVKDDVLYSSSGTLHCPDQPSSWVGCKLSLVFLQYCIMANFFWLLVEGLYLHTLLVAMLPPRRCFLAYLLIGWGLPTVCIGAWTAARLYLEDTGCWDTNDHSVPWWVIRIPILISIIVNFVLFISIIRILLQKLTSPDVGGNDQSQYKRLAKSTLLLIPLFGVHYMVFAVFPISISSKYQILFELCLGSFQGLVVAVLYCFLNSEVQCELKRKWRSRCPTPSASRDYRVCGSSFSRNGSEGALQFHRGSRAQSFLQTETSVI
In short: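 Dissociated cells, 50,000 per point in stimulation buffer, were incubated with stimuli and AlphaScreen acceptor beads for 60 min.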

[2] = Rat serum stability studies (remaining active peptide by DiscoveRx cAMP on CHO-VPAC2 cells); format: in vitro ADME
Experimental: Store the aliquot with aprotinin at 4° C. Store the aliquot without aprotinin at 37° C. […] […] Incubate in room temperature for 30 minutes. Remove the supernatant. […] Incubate on the shaker (300 rpm) for 1 hour. Proceed as normal with the DiscoveRx kit. Include cAMP standards in column 12. Determine EC50 values from the cAMP assay data.

human VPAC2 [3] = molecular target: T1, human VPAC2; test: Filter binding assay, membranes of stable VPAC2 cell line, 125I-labeled VIP tracer (Table 2); conditions: read-out: Human VPAC2 Receptor Binding
In short: (§1)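 Scintillation counting of filter-retained radioligand gave the read-out. Compounds competed with the labelled tracer (about 40000 cpm) for 2.5 μg membranes during 1 hour of shaking in HEPES pH 7.4 buffer containing 0.5% BSA.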

human VPAC1 = molecular target: T2, human VPAC1 (Homo sapiens, UniProt P32241); test: Filter binding assay, membranes of cells transiently transfected with human VPAC1, 125I-labeled VIP tracer (Table 2); design: expressed in transfected cells; conditions: read-out: Human VPAC1 Receptor Binding
T2 sequence (P32241 31-457): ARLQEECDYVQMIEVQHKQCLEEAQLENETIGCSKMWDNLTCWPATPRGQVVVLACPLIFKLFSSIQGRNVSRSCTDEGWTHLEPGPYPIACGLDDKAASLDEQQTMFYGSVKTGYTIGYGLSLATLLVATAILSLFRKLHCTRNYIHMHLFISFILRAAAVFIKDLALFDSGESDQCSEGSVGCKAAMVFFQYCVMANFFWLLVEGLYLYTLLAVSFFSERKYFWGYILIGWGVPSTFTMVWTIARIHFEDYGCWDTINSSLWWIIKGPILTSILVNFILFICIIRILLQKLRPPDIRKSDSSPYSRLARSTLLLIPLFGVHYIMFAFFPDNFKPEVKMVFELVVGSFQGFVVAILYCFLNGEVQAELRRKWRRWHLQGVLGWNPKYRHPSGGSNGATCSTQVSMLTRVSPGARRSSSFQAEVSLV
In short: as §1

Row | Molecule | EC50 (human VPAC2 [1]) | Rat Serum Stability (estimated purity in % after 18 hours) [2] | IC50 (human VPAC2 [3]) | IC50 (human VPAC1)
1 | CCCCCC(=O)N[C@@H](Cc1c[nH]cn1)C(=O)N[C@@H](CO)C(=O)N[C@@H](CC(=O)O)C(=O)N[C@@H](C)C(=O)N[C@H](C(=O)N[C@@H](Cc1ccccc1)C(=O)N[C@H](C(=O)N[C@@H](CC(=O)O)C(=O)N[C@@H](CC(N)=O)C(=O)N[C@@H](Cc1ccc(O)cc1)C(=O)N[C@H](C(=O)N[C@@H](CCCNC(=N)N)C(=O)N[C@@H](CC(C)C)C(=O)N[C@@H](CCCNC(=N)N)C(=O)N[C@@H](CCCCN)C(=O)N[C@@H](CCC(N)=O)C(=O)N[C@H](C(=O)N[C@@H](C)C(=O)N[C@@H](C)C(=O)N[C@@H](CCCNC(=N)N)C(=O)N[C@@H](CCCNC(=N)N)C(=O)N[C@@H](Cc1ccc(O)cc1)C(=O)N[C@@H](CC(C)C)C(=O)N[C@@H](CCC(N)=O)C(=O)N[C@@H](CO)C(=O)N[C@H](C(=O)N[C@@H](CCCNC(=N)N)C(=O)N[C@@H](CC(N)=O)C(=O)NCC(=O)NCC(=O)N1CCC[C@H]1C(=O)N[C@@H](CO)C(=O)N[C@@H](CO)C(=O)NCC(=O)N[C@@H](C)C(=O)N1CCC[C@H]1C(=O)N1CCC[C@H]1C(=O)N1CCC[C@H]1C(=O)N[C@@H](CO)C(=O)O)[C@@H](C)CC)C(C)C)[C@@H](C)O)[C@@H](C)O)C(C)C [Agonist P214] (Hexanoyl-HSDAVFTDNYTRLRKQVAARRYLQSIRNGGPSSGAPPPS-OH; C-terminus assumed) | 0.16 nM | 0.07% | 0.19 nM | 14.5 nM
2 | Hexanoyl-HSDAVFTDNYTRLRLQVAAKKYLQSIKNKRYGGPSSGAPPPS [Agonist P179] | 0.24 nM | 1.66% | 0.42 nM | 390 nM
3 | Hexanoyl-HSDAVFTDNYTRL[hArg][Aib]QVAA[Aib]KYLQSIKNKRYGGPSSGAPPPS [Agonist P316] | 0.3 nM | 15.06% | 0.38 nM | > 3000 nM
4 | Hexanoyl-HSD[dA]VFTDNYTRLRKQVAAKKYLQSIKNKRYGGPSSGAPPPS [Agonist P207] | 0.86 nM | <0.29% | 0.81 nM | 282 nM
5 | Hexanoyl-HSDAVFTDNYTRLRKQVAAKKYLQSIKNKRFGGPSSGAPPPS [Agonist P203] | 0.14 nM | <0.09% | 0.18 nM | 
6 | Hexanoyl-HSDAVFTDNYTRL[Cit][Aib]QVAA[Aib]KYLQSIKNKRYGGPSSGAPPPS [Agonist P320] | 0.49 nM | 28.59% | 1.2 nM | > 3000 nM
7 | CCCCCC(=O)N[C@@H](Cc1c[nH]cn1)C(=O)N[C@@H](CO)C(=O)N[C@@H](CC(=O)O)C(=O)N[C@@H](C)C(=O)N[C@H](C(=O)N[C@@H](Cc1ccccc1)C(=O)N[C@H](C(=O)N[C@@H](CC(=O)O)C(=O)N[C@@H](CC(N)=O)C(=O)N[C@@H](Cc1ccc(O)cc1)C(=O)N[C@H](C(=O)N[C@@H](CCCNC(=N)N)C(=O)N[C@@H](CC(C)C)C(=O)N[C@@H](CCCNC(=N)N)C(=O)NC(C)(C)C(=O)N[C@@H](CCC(N)=O)C(=O)N[C@H](C(=O)N[C@@H](C)C(=O)N[C@@H](C)C(=O)NC(C)(C)C(=O)N[C@@H](CCCCN)C(=O)N[C@@H](Cc1ccc(O)cc1)C(=O)N[C@@H](CC(C)C)C(=O)N[C@@H](CCC(N)=O)C(=O)N[C@@H](CO)C(=O)N[C@H](C(=O)N[C@@H](CCCCN)C(=O)N1CCC[C@H]1C(=O)N[C@@H](CCCCN)C(=O)NCC(=O)NCC(=O)N1CCC[C@H]1C(=O)N[C@@H](CO)C(=O)N[C@@H](CO)C(=O)NCC(=O)N[C@@H](C)C(=O)N1CCC[C@H]1C(=O)N1CCC[C@H]1C(=O)N1CCC[C@H]1C(=O)N[C@@H](CO)C(=O)O)[C@@H](C)CC)C(C)C)[C@@H](C)O)[C@@H](C)O)C(C)C [Agonist P350] (Hexanoyl-HSDAVFTDNYTRLR[Aib]QVAA[Aib]KYLQSIKPKGGPSSGAPPPS-OH; C-terminus assumed) | 0.13 nM | 25.83% |  | 
8 | CCCCCC(=O)N[C@@H](Cc1c[nH]cn1)C(=O)N[C@@H](CO)C(=O)N[C@@H](CC(=O)O)C(=O)N[C@@H](C)C(=O)N[C@H](C(=O)N[C@@H](Cc1ccccc1)C(=O)N[C@H](C(=O)N[C@@H](CC(=O)O)C(=O)N[C@@H](CC(N)=O)C(=O)N[C@@H](Cc1ccc(O)cc1)C(=O)N[C@H](C(=O)N[C@@H](CCCN)C(=O)N[C@@H](CC(C)C)C(=O)N[C@@H](CCCNC(=N)N)C(=O)NC(C)(C)C(=O)N[C@@H](CCC(N)=O)C(=O)N[C@@H](CC(C)C)C(=O)N[C@@H](C)C(=O)N[C@@H](C)C(=O)NC(C)(C)C(=O)N[C@@H](CCCCN)C(=O)N[C@@H](Cc1ccc(O)cc1)C(=O)N[C@@H](CC(C)C)C(=O)N[C@@H](CCC(N)=O)C(=O)N[C@@H](CO)C(=O)N[C@H](C(=O)N[C@@H](CCCN)C(=O)N[C@@H](CC(N)=O)C(=O)N[C@@H](CCCN)C(=O)NCC(=O)NCC(=O)N1CCC[C@H]1C(=O)N[C@@H](CO)C(=O)N[C@@H](CO)C(=O)NCC(=O)N[C@@H](C)C(=O)N1CCC[C@H]1C(=O)N1CCC[C@H]1C(=O)N1CCC[C@H]1C(=O)N[C@@H](CO)C(=O)O)[C@@H](C)CC)[C@@H](C)O)[C@@H](C)O)C(C)C [Agonist P364] (Hexanoyl-HSDAVFTDNYT[Orn]LR[Aib]QLAA[Aib]KYLQSI[Orn]N[Orn]GGPSSGAPPPS-OH; C-terminus assumed) | 0.11 nM | 86.23% |  | 
9 | [Mpa]HSDAVFTDNYTRLLAKLALQKYLQSIKNKRYGGPSSGAPPPS [Agonist P205] | 1.14 nM | 35.02% |  | 
10 | CCCCCC(=O)N[C@@H](Cc1c[nH]cn1)C(=O)N[C@@H](CO)C(=O)N[C@@H](CC(=O)O)C(=O)N[C@@H](C)C(=O)N[C@H](C(=O)N[C@@H](Cc1ccccc1)C(=O)N[C@H](C(=O)N[C@@H](CC(=O)O)C(=O)N[C@@H](CC(N)=O)C(=O)N[C@@H](Cc1ccc(O)cc1)C(=O)N[C@H](C(=O)N[C@@H](CCCNC(=N)N)C(=O)N[C@@H](CC(C)C)C(=O)N[C@@H](CCCNC(=N)N)C(=O)N[C@@H](CCCNC(=N)N)C(=O)N[C@@H](CCC(N)=O)C(=O)N[C@H](C(=O)N[C@@H](C)C(=O)N[C@@H](C)C(=O)N[C@@H](CCCNC(=N)N)C(=O)N[C@@H](CCCCN)C(=O)N[C@@H](Cc1ccc(O)cc1)C(=O)N[C@@H](CC(C)C)C(=O)N[C@@H](CCC(N)=O)C(=O)N[C@@H](CO)C(=O)N[C@H](C(=O)N[C@@H](CCCNC(=N)N)C(=O)N[C@@H](CC(N)=O)C(=O)NCC(=O)NCC(=O)N1CCC[C@H]1C(=O)N[C@@H](CO)C(=O)N[C@@H](CO)C(=O)NCC(=O)N[C@@H](C)C(=O)N1CCC[C@H]1C(=O)N1CCC[C@H]1C(=O)N1CCC[C@H]1C(=O)N[C@@H](CO)C(=O)O)[C@@H](C)CC)C(C)C)[C@@H](C)O)[C@@H](C)O)C(C)C [Agonist P216] (Hexanoyl-HSDAVFTDNYTRLRRQVAARKYLQSIRNGGPSSGAPPPS-OH; C-terminus assumed) | 0.11 nM | 0.06% |  | 
11 | CCCCCC(=O)N[C@@H](Cc1c[nH]cn1)C(=O)N[C@@H](CO)C(=O)N[C@@H](CC(=O)O)C(=O)N[C@@H](C)C(=O)N[C@H](C(=O)N[C@@H](Cc1ccccc1)C(=O)N[C@H](C(=O)N[C@@H](CC(=O)O)C(=O)N[C@@H](CC(N)=O)C(=O)N[C@@H](Cc1ccc(O)cc1)C(=O)N[C@H](C(=O)N[C@@H](CCCNC(=N)N)C(=O)N[C@@H](CC(C)C)C(=O)N[C@@H](CCCNC(=N)N)C(=O)N[C@@H](CCCNC(=N)N)C(=O)N[C@@H](CCC(N)=O)C(=O)N[C@H](C(=O)N[C@@H](C)C(=O)N[C@@H](C)C(=O)N[C@@H](CCCCN)C(=O)N[C@@H](CCCNC(=N)N)C(=O)N[C@@H](Cc1ccc(O)cc1)C(=O)N[C@@H](CC(C)C)C(=O)N[C@@H](CCC(N)=O)C(=O)N[C@@H](CO)C(=O)N[C@H](C(=O)N[C@@H](CCCNC(=N)N)C(=O)N[C@@H](CC(N)=O)C(=O)NCC(=O)NCC(=O)N1CCC[C@H]1C(=O)N[C@@H](CO)C(=O)N[C@@H](CO)C(=O)NCC(=O)N[C@@H](C)C(=O)N1CCC[C@H]1C(=O)N1CCC[C@H]1C(=O)N1CCC[C@H]1C(=O)N[C@@H](CO)C(=O)O)[C@@H](C)CC)C(C)C)[C@@H](C)O)[C@@H](C)O)C(C)C [Agonist P215] (Hexanoyl-HSDAVFTDNYTRLRRQVAAKRYLQSIRNGGPSSGAPPPS-OH; C-terminus assumed) | 0.09 nM | 0.08% |  | 
